Experimental data published in US10800741B2 (ANCUREALL PHARMACEUTICAL (SHANGHAI) CO., LTD., priority 2017, dated 2020).
Where two headings read alike, the source gives them in different places.

Legend:
Assay in all cases: KINOMEscan in vitro binding to 468 labeled protein kinases
protein kinases [1] = target: T1, protein kinases (Homo sapiens, UniProt P00519, M351T); conditions: ABL1(M351T)-phosphorylated, read-out: Test compound/solvent control (%)
T1 construct: purchased Discovery X company (USA), KINOMEscan screening platform
Outline: (§1)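 Duplicate in vitro binding reactions at 1 nM, 10 nM and 1000 nM compound against a panel of 468 labelled protein kinases (KINOMEscan). Binding expressed relative to solvent control as a percentage, stronger affinity giving a lower value.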

protein kinases [2] = target: T2, protein kinases (Homo sapiens, UniProt P08631); conditions: HCK, read-out: Test compound/solvent control (%)
T2 construct: purchased Discovery X company (USA), KINOMEscan screening platform
T2 sequence (P08631 whole entry): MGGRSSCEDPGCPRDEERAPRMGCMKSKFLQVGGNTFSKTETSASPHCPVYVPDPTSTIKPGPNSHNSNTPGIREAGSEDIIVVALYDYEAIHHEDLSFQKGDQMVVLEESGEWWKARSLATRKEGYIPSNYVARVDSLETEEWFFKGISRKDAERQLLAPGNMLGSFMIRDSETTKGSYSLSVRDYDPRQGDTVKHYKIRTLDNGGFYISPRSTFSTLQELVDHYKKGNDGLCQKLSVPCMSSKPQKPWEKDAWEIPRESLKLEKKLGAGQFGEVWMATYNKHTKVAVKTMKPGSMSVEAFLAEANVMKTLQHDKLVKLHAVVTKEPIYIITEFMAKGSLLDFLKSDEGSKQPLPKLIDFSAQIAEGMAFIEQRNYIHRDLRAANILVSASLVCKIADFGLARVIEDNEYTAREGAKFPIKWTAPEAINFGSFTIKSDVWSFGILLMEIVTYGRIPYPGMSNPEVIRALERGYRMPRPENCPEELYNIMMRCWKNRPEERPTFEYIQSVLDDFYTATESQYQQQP
Outline: as §1

protein kinases [3] = target: T3, protein kinases (Homo sapiens, UniProt P30530); conditions: AXL, read-out: Test compound/solvent control (%)
T3 construct: purchased Discovery X company (USA), KINOMEscan screening platform
T3 sequence (P30530 26-894): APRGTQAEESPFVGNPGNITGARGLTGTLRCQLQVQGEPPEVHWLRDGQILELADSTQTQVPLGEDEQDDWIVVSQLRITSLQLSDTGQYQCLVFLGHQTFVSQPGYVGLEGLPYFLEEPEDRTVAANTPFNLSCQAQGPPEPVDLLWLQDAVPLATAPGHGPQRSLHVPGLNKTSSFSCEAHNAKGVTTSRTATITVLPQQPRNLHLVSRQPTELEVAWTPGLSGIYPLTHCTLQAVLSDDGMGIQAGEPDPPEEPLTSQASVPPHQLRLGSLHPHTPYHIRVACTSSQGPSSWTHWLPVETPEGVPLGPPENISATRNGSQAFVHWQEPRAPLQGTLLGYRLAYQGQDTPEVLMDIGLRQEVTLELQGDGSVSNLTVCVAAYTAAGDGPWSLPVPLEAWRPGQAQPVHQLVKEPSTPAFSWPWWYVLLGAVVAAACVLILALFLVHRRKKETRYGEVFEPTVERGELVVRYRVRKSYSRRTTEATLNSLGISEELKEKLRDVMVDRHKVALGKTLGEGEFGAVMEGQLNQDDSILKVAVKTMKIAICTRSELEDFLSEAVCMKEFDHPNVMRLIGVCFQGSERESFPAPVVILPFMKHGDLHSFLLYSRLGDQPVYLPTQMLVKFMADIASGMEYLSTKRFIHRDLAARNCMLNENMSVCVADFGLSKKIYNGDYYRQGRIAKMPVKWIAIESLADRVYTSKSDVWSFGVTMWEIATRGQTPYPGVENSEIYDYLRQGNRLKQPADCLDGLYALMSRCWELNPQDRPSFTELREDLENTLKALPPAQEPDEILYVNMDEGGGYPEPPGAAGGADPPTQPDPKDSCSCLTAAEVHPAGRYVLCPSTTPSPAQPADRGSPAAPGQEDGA
Outline: as §1

protein kinases [4] = target: T4, protein kinases (Homo sapiens, UniProt P00519, F317L); conditions: read-out: Test compound/solvent control (%); for remaining binding at 0.001 µM: 1 nM; for remaining binding at 0.01 µM: 10 nM; for remaining binding at 1 µM: 1000 nM
T4 construct: purchased Discovery X company (USA), KINOMEscan screening platform
Outline: as §1

protein kinases [5] = target: T5, protein kinases (Homo sapiens, UniProt P22455); conditions: FGFR4, read-out: Test compound/solvent control (%)
T5 construct: purchased Discovery X company (USA), KINOMEscan screening platform
T5 sequence (P22455 22-802): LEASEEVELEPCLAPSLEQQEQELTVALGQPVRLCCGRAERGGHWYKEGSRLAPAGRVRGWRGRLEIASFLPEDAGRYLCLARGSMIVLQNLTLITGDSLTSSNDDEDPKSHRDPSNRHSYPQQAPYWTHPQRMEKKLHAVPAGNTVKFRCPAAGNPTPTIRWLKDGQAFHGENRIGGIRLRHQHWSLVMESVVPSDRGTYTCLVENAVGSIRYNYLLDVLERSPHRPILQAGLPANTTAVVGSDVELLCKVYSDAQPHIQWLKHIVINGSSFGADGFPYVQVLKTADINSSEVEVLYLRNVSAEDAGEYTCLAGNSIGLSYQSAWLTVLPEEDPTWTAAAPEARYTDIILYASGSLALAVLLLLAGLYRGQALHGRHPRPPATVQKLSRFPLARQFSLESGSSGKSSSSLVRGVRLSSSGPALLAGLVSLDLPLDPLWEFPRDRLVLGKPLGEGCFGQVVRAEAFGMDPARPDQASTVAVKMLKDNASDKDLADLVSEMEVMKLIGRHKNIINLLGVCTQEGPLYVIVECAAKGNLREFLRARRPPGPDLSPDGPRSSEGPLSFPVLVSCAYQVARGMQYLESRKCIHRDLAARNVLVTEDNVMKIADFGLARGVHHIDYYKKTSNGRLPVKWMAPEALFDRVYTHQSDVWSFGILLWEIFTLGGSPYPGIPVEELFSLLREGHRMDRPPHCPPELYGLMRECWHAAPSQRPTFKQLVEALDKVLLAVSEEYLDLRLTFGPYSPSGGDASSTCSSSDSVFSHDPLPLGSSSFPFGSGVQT
Outline: as §1

protein kinases [6] = target: T6, protein kinases (Homo sapiens, UniProt Q9UKE5); conditions: TNIK, read-out: Test compound/solvent control (%)
T6 construct: purchased Discovery X company (USA), KINOMEscan screening platform
T6 sequence (Q9UKE5 whole entry): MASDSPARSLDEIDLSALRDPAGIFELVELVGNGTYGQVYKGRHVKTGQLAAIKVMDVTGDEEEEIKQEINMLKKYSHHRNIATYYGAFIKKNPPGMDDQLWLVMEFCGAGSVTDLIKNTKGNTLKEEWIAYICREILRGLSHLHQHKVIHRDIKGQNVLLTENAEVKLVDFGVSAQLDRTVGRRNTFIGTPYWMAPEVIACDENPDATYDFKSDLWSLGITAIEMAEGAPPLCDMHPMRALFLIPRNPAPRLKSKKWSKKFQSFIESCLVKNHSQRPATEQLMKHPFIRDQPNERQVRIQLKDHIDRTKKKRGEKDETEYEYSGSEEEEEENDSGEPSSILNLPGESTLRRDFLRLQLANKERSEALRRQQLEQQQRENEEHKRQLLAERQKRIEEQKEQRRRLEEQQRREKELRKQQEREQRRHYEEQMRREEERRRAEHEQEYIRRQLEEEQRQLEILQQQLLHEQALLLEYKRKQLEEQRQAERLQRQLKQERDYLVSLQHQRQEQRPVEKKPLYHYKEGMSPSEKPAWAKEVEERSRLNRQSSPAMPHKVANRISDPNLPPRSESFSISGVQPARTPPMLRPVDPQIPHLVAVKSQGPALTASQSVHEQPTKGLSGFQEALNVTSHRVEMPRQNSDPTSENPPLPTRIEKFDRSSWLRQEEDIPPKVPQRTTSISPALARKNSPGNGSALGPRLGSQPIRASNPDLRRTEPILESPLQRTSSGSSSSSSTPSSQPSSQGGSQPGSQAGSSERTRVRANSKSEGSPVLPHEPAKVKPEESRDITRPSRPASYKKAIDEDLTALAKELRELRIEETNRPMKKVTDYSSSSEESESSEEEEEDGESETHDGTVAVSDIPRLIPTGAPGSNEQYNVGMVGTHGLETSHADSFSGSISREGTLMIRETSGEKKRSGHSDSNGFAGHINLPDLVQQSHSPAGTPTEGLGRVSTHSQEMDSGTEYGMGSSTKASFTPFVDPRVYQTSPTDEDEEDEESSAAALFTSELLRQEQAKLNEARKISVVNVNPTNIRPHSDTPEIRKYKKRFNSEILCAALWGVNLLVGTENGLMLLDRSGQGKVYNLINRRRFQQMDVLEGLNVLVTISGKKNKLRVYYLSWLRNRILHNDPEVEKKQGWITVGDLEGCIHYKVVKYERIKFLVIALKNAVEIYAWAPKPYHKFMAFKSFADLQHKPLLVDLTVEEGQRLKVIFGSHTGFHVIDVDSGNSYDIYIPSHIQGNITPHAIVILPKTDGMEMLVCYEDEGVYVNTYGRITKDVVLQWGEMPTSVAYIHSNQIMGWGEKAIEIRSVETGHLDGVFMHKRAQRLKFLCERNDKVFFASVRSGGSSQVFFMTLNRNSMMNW
Outline: as §1

protein kinases [7] = target: T7, protein kinases (Homo sapiens, UniProt P36888, D835H); conditions: FLT3(D835H), read-out: Test compound/solvent control (%)
T7 construct: purchased Discovery X company (USA), KINOMEscan screening platform
T7 sequence (P36888 27-993 D835H): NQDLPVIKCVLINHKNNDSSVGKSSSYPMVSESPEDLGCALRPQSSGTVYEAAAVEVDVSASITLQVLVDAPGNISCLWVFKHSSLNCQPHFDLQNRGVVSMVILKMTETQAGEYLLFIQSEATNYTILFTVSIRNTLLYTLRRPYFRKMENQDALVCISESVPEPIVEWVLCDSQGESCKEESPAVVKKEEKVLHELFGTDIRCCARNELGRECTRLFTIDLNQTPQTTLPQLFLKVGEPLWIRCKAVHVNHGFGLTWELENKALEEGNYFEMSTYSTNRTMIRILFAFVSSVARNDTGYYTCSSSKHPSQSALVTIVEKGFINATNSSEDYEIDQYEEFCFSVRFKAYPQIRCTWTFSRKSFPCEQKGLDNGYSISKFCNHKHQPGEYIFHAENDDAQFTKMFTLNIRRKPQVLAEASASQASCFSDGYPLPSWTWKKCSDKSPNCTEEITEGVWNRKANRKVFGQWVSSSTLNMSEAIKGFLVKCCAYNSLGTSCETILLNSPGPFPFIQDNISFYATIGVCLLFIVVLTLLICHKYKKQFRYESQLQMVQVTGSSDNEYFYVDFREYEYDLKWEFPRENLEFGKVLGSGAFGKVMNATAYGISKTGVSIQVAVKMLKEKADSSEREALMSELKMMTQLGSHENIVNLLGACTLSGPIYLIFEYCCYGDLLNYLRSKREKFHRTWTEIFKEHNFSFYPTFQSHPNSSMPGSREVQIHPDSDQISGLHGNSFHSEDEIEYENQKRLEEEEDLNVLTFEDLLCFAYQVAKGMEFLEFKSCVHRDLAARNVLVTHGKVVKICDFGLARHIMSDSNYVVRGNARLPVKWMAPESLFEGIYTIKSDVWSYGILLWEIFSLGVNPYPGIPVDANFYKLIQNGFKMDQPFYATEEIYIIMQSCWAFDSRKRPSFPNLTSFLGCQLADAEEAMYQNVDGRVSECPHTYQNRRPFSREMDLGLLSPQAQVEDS
Outline: as §1

protein kinases [8] = target: T8, protein kinases (Homo sapiens, UniProt P00533, T790M); conditions: EGFR(T790M)
T8 construct: purchased Discovery X company (USA), KINOMEscan screening platform
T8 sequence (P00533 25-1210 T790M): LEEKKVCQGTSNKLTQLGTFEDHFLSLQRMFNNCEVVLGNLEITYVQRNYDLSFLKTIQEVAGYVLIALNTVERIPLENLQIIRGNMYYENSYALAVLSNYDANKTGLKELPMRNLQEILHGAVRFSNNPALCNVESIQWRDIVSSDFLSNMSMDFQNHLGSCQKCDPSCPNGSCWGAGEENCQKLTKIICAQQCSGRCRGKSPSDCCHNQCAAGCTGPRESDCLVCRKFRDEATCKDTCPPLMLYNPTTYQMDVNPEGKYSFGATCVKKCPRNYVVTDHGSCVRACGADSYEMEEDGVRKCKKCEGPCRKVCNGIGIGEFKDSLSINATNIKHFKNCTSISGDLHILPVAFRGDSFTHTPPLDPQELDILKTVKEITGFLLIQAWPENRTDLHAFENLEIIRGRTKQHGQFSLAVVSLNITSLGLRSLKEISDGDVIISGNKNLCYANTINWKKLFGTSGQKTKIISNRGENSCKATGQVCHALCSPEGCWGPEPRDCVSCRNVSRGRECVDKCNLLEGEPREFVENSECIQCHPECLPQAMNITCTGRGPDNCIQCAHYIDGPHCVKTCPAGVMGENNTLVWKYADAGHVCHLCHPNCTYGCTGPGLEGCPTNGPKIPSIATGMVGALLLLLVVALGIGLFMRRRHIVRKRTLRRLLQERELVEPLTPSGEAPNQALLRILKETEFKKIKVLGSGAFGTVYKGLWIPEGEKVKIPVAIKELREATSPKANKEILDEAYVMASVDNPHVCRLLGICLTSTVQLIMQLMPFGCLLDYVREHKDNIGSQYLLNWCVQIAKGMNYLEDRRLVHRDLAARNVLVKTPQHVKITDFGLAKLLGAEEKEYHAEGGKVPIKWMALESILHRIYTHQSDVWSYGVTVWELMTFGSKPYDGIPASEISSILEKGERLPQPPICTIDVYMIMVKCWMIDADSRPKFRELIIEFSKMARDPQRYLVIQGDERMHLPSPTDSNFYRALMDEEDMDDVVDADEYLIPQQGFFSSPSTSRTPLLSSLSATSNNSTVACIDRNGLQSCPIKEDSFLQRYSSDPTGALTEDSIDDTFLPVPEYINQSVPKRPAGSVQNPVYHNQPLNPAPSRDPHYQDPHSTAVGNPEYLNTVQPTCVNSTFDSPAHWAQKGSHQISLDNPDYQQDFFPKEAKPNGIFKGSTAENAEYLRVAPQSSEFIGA
Outline: as §1

COCCOc1cc2nccc(Oc3ccc(NC(=O)Nc4cc(C(C)(C)C)n[nH]4)c(Cl)c3)c2cc1NC(C)=O [Compound 66, N-[4-{4-[3-(5-tert-butyl-2H-pyrazol-3-yl)-ureido]-3-chloro-phenoxy}-7-(2-methoxy-ethoxy)-quinolin-6-yl]-acetamide]
remaining binding at 0.001 µM (protein kinases [1]; 1 nM): 100%
remaining binding at 0.01 µM (protein kinases [1]; 10 nM): 22%
remaining binding at 1 µM (protein kinases [1]; 1000 nM): 0.65%
remaining binding at 0.001 µM (protein kinases [2]; 1 nM): 60%
remaining binding at 0.01 µM (protein kinases [2]; 10 nM): 1.7%
remaining binding at 1 µM (protein kinases [2]; 1000 nM): 0%
remaining binding at 0.001 µM (protein kinases [3]; 1 nM): 53%
remaining binding at 0.01 µM (protein kinases [3]; 10 nM): 7.2%
remaining binding at 1 µM (protein kinases [3]; 1000 nM): 4.1%
remaining binding at 0.001 µM (protein kinases [4]; ABL1(F317L)-phosphorylated): 55%
remaining binding at 0.01 µM (protein kinases [4]; ABL1(F317L)-phosphorylated): 3.7%
remaining binding at 1 µM (protein kinases [4]; ABL1(F317L)-phosphorylated): 1.1%
remaining binding at 0.001 µM (protein kinases [4]; ABL1(F317L)-unphosphorylated): 49%
remaining binding at 0.01 µM (protein kinases [4]; ABL1(F317L)-unphosphorylated): 6.8%
remaining binding at 1 µM (protein kinases [4]; ABL1(F317L)-unphosphorylated): 0.25%
remaining binding at 0.001 µM (protein kinases [5]; 1 nM): 93%
remaining binding at 0.01 µM (protein kinases [5]; 10 nM): 74%
remaining binding at 1 µM (protein kinases [5]; 1000 nM): 0%
remaining binding at 0.001 µM (protein kinases [6]; 1 nM): 44%
remaining binding at 0.01 µM (protein kinases [6]; 10 nM): 6.4%
remaining binding at 1 µM (protein kinases [6]; 1000 nM): 7%
remaining binding at 0.001 µM (protein kinases [7]; 1 nM): 79%
remaining binding at 0.01 µM (protein kinases [7]; 10 nM): 15%
remaining binding at 1 µM (protein kinases [7]; 1000 nM): 1.1%
Test compound/solvent control (%) (protein kinases [8]; 1 nM): 83%
Test compound/solvent control (%) (protein kinases [8]; 10 nM): 19%
Test compound/solvent control (%) (protein kinases [8]; 1000 nM): 0.2%
